Laboratory results from PubChem BioAssay AID2060489 (Molecular Pharmacology Branch, DTP, NCI, 2025).

Test system: 922993-354-T-J3-PDC complex spheroids, viability
Assay: Anticancer human tumor 922993-354-T-J3-PDC patient-derived endometrial carcinoma cell line growth inhibition [GQUAD]
Conditions: for IC50: curve of first compound; for viability, T/C: stronger effect = lower value
How it was run: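 Tumor cells were grown as complex spheroids with HUVEC endothelial cells and mesenchymal stem cells as stroma. G-quadruplex stabilizers were combined with targeted agents over half-log dilutions from near the clinical Cmax, or from 10 microM.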

[1] = second compound 0.0316 µM, first compound 0.0316 µM
[2] = second compound 0.0316 µM, first compound 0.1 µM
[3] = second compound 0.0316 µM, first compound 0.316 µM
[4] = second compound 0.0316 µM, first compound 1 µM
[5] = second compound 0.0316 µM, first compound 3.16 µM
[6] = second compound 0.0316 µM, first compound 10 µM
[7] = second compound 0.1 µM, first compound 0.0316 µM
[8] = second compound 0.1 µM, first compound 0.1 µM
[9] = second compound 0.1 µM, first compound 0.316 µM
[10] = second compound 0.1 µM, first compound 1 µM
[11] = second compound 0.1 µM, first compound 3.16 µM
[12] = second compound 0.1 µM, first compound 10 µM
[13] = second compound 0.316 µM, first compound 0.0316 µM
[14] = second compound 0.316 µM, first compound 0.1 µM
[15] = second compound 0.316 µM, first compound 0.316 µM
[16] = second compound 0.316 µM, first compound 1 µM
[17] = second compound 0.316 µM, first compound 3.16 µM
[18] = second compound 0.316 µM, first compound 10 µM
[19] = second compound 1 µM, first compound 0.0316 µM
[20] = second compound 1 µM, first compound 0.1 µM
[21] = second compound 1 µM, first compound 0.316 µM
[22] = second compound 1 µM, first compound 1 µM
[23] = second compound 1 µM, first compound 3.16 µM
[24] = second compound 1 µM, first compound 10 µM
[25] = second compound 3.16 µM, first compound 0.0316 µM
[26] = second compound 3.16 µM, first compound 0.1 µM
[27] = second compound 3.16 µM, first compound 0.316 µM
[28] = second compound 3.16 µM, first compound 1 µM
[29] = second compound 3.16 µM, first compound 3.16 µM
[30] = second compound 3.16 µM, first compound 10 µM
[31] = second compound 10 µM, first compound 0.0316 µM
[32] = second compound 10 µM, first compound 0.1 µM
[33] = second compound 10 µM, first compound 0.316 µM
[34] = second compound 10 µM, first compound 1 µM
[35] = second compound 10 µM, first compound 3.16 µM
[36] = second compound 10 µM, first compound 10 µM
[37] = second compound 0.0316 µM, first compound 0.000999 µM
[38] = second compound 0.0316 µM, first compound 0.00316 µM
[39] = second compound 0.0316 µM, first compound 0.00999 µM
[40] = second compound 0.0316 µM, first compound 0.0999 µM
[41] = second compound 0.1 µM, first compound 0.000999 µM
[42] = second compound 0.1 µM, first compound 0.00316 µM
[43] = second compound 0.1 µM, first compound 0.00999 µM
[44] = second compound 0.1 µM, first compound 0.0999 µM
[45] = second compound 0.316 µM, first compound 0.000999 µM
[46] = second compound 0.316 µM, first compound 0.00316 µM
[47] = second compound 0.316 µM, first compound 0.00999 µM
[48] = second compound 0.316 µM, first compound 0.0999 µM
[49] = second compound 1 µM, first compound 0.000999 µM
[50] = second compound 1 µM, first compound 0.00316 µM
[51] = second compound 1 µM, first compound 0.00999 µM
[52] = second compound 1 µM, first compound 0.0999 µM
[53] = second compound 3.16 µM, first compound 0.000999 µM
[54] = second compound 3.16 µM, first compound 0.00316 µM
[55] = second compound 3.16 µM, first compound 0.00999 µM
[56] = second compound 3.16 µM, first compound 0.0999 µM
[57] = second compound 10 µM, first compound 0.000999 µM
[58] = second compound 10 µM, first compound 0.00316 µM
[59] = second compound 10 µM, first compound 0.00999 µM
[60] = second compound 10 µM, first compound 0.0999 µM
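Note: spheroids exposed to compounds for seven days.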
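Throughout, for viability, T/C: 100% = DMSO vehicle control viability.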

Compound: C=CC(=O)N1CCN(c2nc(=O)n(-c3c(C)ccnc3C(C)C)c3nc(-c4c(O)cccc4F)c(F)cc23)C(C)C1 (stereo not drawn) + CN(C)c1ccc(Nc2c3ccc(NC(=O)CCN4CCCC4)cc3nc3cc(NC(=O)CCN4CCCC4)ccc23)cc1
- IC50 (second compound 0.0316 µM): > 10000 nM
- IC50 (second compound 0.1 µM): > 10000 nM
- IC50 (second compound 0.316 µM): > 10000 nM
- IC50 (second compound 1 µM): > 10000 nM
- IC50 (second compound 3.16 µM): > 10000 nM
- IC50 (second compound 10 µM): > 10000 nM
- viability, T/C [1]: 96.9%
- viability, T/C [2]: 84.8%
- viability, T/C [3]: 102%
- viability, T/C [4]: 104%
- viability, T/C [5]: 97%
- viability, T/C [6]: 119%
- viability, T/C [7]: 109%
- viability, T/C [8]: 109%
- viability, T/C [9]: 112%
- viability, T/C [10]: 94.5%
- viability, T/C [11]: 128%
- viability, T/C [12]: 109%
- viability, T/C [13]: 112%
- viability, T/C [14]: 120%
- viability, T/C [15]: 96.7%
- viability, T/C [16]: 128%
- viability, T/C [17]: 103%
- viability, T/C [18]: 104%
- viability, T/C [19]: 111%
- viability, T/C [20]: 118%
- viability, T/C [21]: 99.6%
- viability, T/C [22]: 125%
- viability, T/C [23]: 117%
- viability, T/C [24]: 120%
- viability, T/C [25]: 107%
- viability, T/C [26]: 128%
- viability, T/C [27]: 107%
- viability, T/C [28]: 139%
- viability, T/C [29]: 137%
- viability, T/C [30]: 117%
- viability, T/C [31]: 115%
- viability, T/C [32]: 140%
- viability, T/C [33]: 142%
- viability, T/C [34]: 137%
- viability, T/C [35]: 153%
- viability, T/C [36]: 142%

Compound: CC[C@@]1(O)C(=O)OCc2c1cc1n(c2=O)Cc2cc3c(CN(C)C)c(O)ccc3nc2-1 + CN(C)c1ccc(Nc2c3ccc(NC(=O)CCN4CCCC4)cc3nc3cc(NC(=O)CCN4CCCC4)ccc23)cc1
- IC50 (second compound 0.0316 µM): 279 nM
- IC50 (second compound 0.1 µM): > 316 nM
- IC50 (second compound 0.316 µM): 286 nM
- IC50 (second compound 1 µM): 265 nM
- IC50 (second compound 3.16 µM): 302 nM
- IC50 (second compound 10 µM): > 316 nM
- viability, T/C [37]: 100%
- viability, T/C [38]: 74.3%
- viability, T/C [39]: 99.8%
- viability, T/C [1]: 91.9%
- viability, T/C [40]: 77.3%
- viability, T/C [3]: 46.6%
- viability, T/C [41]: 120%
- viability, T/C [42]: 110%
- viability, T/C [43]: 89.3%
- viability, T/C [7]: 82.7%
- viability, T/C [44]: 88.9%
- viability, T/C [9]: 43.4%
- viability, T/C [45]: 90.5%
- viability, T/C [46]: 98.4%
- viability, T/C [47]: 79.2%
- viability, T/C [13]: 84%
- viability, T/C [48]: 92.5%
- viability, T/C [15]: 46.2%
- viability, T/C [49]: 100%
- viability, T/C [50]: 106%
- viability, T/C [51]: 97.7%
- viability, T/C [19]: 94.5%
- viability, T/C [52]: 76.8%
- viability, T/C [21]: 45.1%
- viability, T/C [53]: 101%
- viability, T/C [54]: 109%
- viability, T/C [55]: 99.6%
- viability, T/C [25]: 117%
- viability, T/C [56]: 115%
- viability, T/C [27]: 47.6%
- viability, T/C [57]: 109%
- viability, T/C [58]: 115%
- viability, T/C [59]: 110%
- viability, T/C [31]: 97.3%
- viability, T/C [60]: 115%
- viability, T/C [33]: 59.4%

Compound: Cc1cccc(N(C)C(=O)C2C(O)CCN2c2nc(C)cc(C(F)(F)F)c2C#N)c1 (stereo not drawn) + CN(C)c1ccc(Nc2c3ccc(NC(=O)CCN4CCCC4)cc3nc3cc(NC(=O)CCN4CCCC4)ccc23)cc1
- IC50 (second compound 0.0316 µM): > 10000 nM
- IC50 (second compound 0.1 µM): > 10000 nM
- IC50 (second compound 0.316 µM): > 10000 nM
- IC50 (second compound 1 µM): > 10000 nM
- IC50 (second compound 3.16 µM): > 10000 nM
- IC50 (second compound 10 µM): > 10000 nM
- viability, T/C [1]: 80.8%
- viability, T/C [2]: 89.6%
- viability, T/C [3]: 80.6%
- viability, T/C [4]: 92.5%
- viability, T/C [5]: 90.1%
- viability, T/C [6]: 95.4%
- viability, T/C [7]: 89.6%
- viability, T/C [8]: 111%
- viability, T/C [9]: 87.5%
- viability, T/C [10]: 103%
- viability, T/C [11]: 94.9%
- viability, T/C [12]: 67.6%
- viability, T/C [13]: 90.4%
- viability, T/C [14]: 105%
- viability, T/C [15]: 95.5%
- viability, T/C [16]: 91.8%
- viability, T/C [17]: 83.2%
- viability, T/C [18]: 69.6%
- viability, T/C [19]: 85.3%
- viability, T/C [20]: 82.7%
- viability, T/C [21]: 101%
- viability, T/C [22]: 93.6%
- viability, T/C [23]: 97.1%
- viability, T/C [24]: 82.1%
- viability, T/C [25]: 96.8%
- viability, T/C [26]: 102%
- viability, T/C [27]: 104%
- viability, T/C [28]: 106%
- viability, T/C [29]: 99.3%
- viability, T/C [30]: 91.5%
- viability, T/C [31]: 105%
- viability, T/C [32]: 133%
- viability, T/C [33]: 113%
- viability, T/C [34]: 106%
- viability, T/C [35]: 103%
- viability, T/C [36]: 80.3%

Compound: Cn1ncnc1[C@H]1c2n[nH]c(=O)c3cc(F)cc(c23)N[C@@H]1c1ccc(F)cc1 + CN(C)c1ccc(Nc2c3ccc(NC(=O)CCN4CCCC4)cc3nc3cc(NC(=O)CCN4CCCC4)ccc23)cc1
- IC50 (second compound 0.0316 µM): > 316 nM
- IC50 (second compound 0.1 µM): > 316 nM
- IC50 (second compound 0.316 µM): 222 nM
- IC50 (second compound 1 µM): > 316 nM
- IC50 (second compound 3.16 µM): > 316 nM
- IC50 (second compound 10 µM): > 316 nM
- viability, T/C [37]: 98.4%
- viability, T/C [38]: 83.2%
- viability, T/C [39]: 68.9%
- viability, T/C [1]: 79.6%
- viability, T/C [40]: 95.2%
- viability, T/C [3]: 60.4%
- viability, T/C [41]: 111%
- viability, T/C [42]: 93.7%
- viability, T/C [43]: 98.1%
- viability, T/C [7]: 90.1%
- viability, T/C [44]: 91.8%
- viability, T/C [9]: 55.4%
- viability, T/C [45]: 97.4%
- viability, T/C [46]: 85.7%
- viability, T/C [47]: 91.7%
- viability, T/C [13]: 111%
- viability, T/C [48]: 84.4%
- viability, T/C [15]: 34.7%
- viability, T/C [49]: 93.6%
- viability, T/C [50]: 108%
- viability, T/C [51]: 96%
- viability, T/C [19]: 92.1%
- viability, T/C [52]: 109%
- viability, T/C [21]: 60.1%
- viability, T/C [53]: 78%
- viability, T/C [54]: 83.5%
- viability, T/C [55]: 109%
- viability, T/C [25]: 106%
- viability, T/C [56]: 105%
- viability, T/C [27]: 72.2%
- viability, T/C [57]: 108%
- viability, T/C [58]: 118%
- viability, T/C [59]: 123%
- viability, T/C [31]: 107%
- viability, T/C [60]: 98.5%
- viability, T/C [33]: 83%
